# Key:
# [1] = tested on: hypertensive patients randomized to the calcium antagonist strategy; assay: INVEST subanalysis: BP reduction by addition of HCTZ to verapamil SR/trandolapril; assay type: in vivo
# Description: Subanalysis Design: INVEST afforded an opportunity to analyze unique and specific combinations of antihypertensive drugs due to the data accumulated for prescription date, drug, regimen, and dose. One subanalysis was performed to evaluate the incremental benefit of BP reduction by the addition of HCTZ to various dose combinations of verapamil SR and trandolapril in patients randomized to the calcium antagonist strategy. […]
# Patients who received the verapamil SR/trandolapril combination as their first randomized drug prescription in INVEST, and who received no other drug prescription or gap in medication until their first HCTZ prescription added to the initial verapamil SR/trandolapril combination dose, were selected for this subgroup analysis. […] Summary statistics for change from baseline for SBP and DBP to the last observation at each dose level for both the verapamil SR/trandolapril dual combination and the verapamil SR/trandolapril/HCTZ triple combination were analyzed. […] In this subanalysis the incremental effect of HCTZ on BP reduction was evaluated for any dose of HCTZ.
# [2] = tested on: CAD patients with hypertension; assay: INVEST trial: new diagnosis of diabetes; assay type: in vivo; details: for HR of developing diabetes: vs NCAS not taking trandolapril or hydrochlorothiazide; for Effect of add-on medication on risk of diabetes: preliminary analyses adjusted for 5 baseline covariates and average daily dose
# Source text: The primary outcome was the first occurrence of death (all-cause), nonfatal MI, or nonfatal stroke by intention-to-treat analysis. The MI and stroke definitions are detailed on the INVEST Web site. These 3 components individually were the main secondary outcomes. Additional outcomes included time to most serious event (ranked from death as most serious, to MI, to stroke as least serious), cardiovascular death (definite or presumed), angina, cardiovascular hospitalizations, blood pressure control, cancer, Alzheimer disease, Parkinson disease, and gastrointestinal tract bleeding. Shortly after the study started, new information became available on the potential for ACE inhibitors to prevent or delay the onset of diabetes. Accordingly, at the recommendation of the independent data safety and monitoring committee, new diagnosis of diabetes was added as an outcome early in the recruitment phase of the study.
# Of the 8098 CAS patients without diabetes at entry, 569 (7.03%) were diagnosed as having diabetes during follow-up. Of the 8078 NCAS patients without diabetes at entry, 665 (8.23%) were diagnosed as having diabetes during follow-up (RR, 0.85; 95% CI, 0.77-0.95). Patients in the CAS group were also less likely to die or develop diabetes compared with patients in the NCAS group (1050 [12.97%] vs 1177 [14.57%]; RR, 0.89; 95% CI, 0.82-0.96) and less likely to have an event in the primary outcome cluster or develop diabetes (1185 [14.63%] vs 1313 [16.25%]; RR, 0.90; 95% CI, 0.84-0.97). To explore possible explanations for reduced risk of diabetes, we conducted preliminary analyses adjusting for the 5 pre-specified baseline covariates (age, race, sex, prior MI, and prior heart failure) and included factors for average daily dose of add-on medication (trandolapril and/or hydrochlorothiazide). […] A 2-mg dose of trandolapril was associated with a HR of 0.86 (95% CI, 0.74-1.00) and a 4-mg dose was associated with a HR of 0.77 (95% CI, 0.62-0.96). In the NCAS group, a 2-mg dose of trandolapril was associated with a HR of 0.99 (95% CI, 0.90-1.08) and a 4-mg dose was associated with a HR of 0.98 (95% CI, 0.82-1.18). […] Compared with those in the NCAS group not taking either trandolapril or hydrochlorothiazide, the addition of 12.5 mg of hydrochlorothiazide was associated with a HR of 1.17 (95% CI, 1.09-1.25) and 25 mg of hydrochlorothiazide was associated with a HR of 1.36 (95% CI, 1.18-1.57).
# [3] = Group 1, added to verapamil SR/trandolapril 180/2 mg
# [4] = Group 2, added to verapamil SR/trandolapril 240/2 mg
# [5] = Group 3, added to verapamil SR/trandolapril 240/4 mg
Structure (SMILES),"Decrease of mean diastolic BP with the addition of HCTZ [1, 3] [mm Hg]","Decrease of mean systolic BP after the addition of HCTZ [1, 3] [mm Hg]","Decrease of mean diastolic BP with the addition of HCTZ [1, 4] [mm Hg]","Decrease of mean systolic BP after the addition of HCTZ [1, 4] [mm Hg]","Decrease of mean diastolic BP with the addition of HCTZ [1, 5] [mm Hg]","Decrease of mean systolic BP after the addition of HCTZ [1, 5] [mm Hg]","Incremental BP reduction with addition of HCTZ ([1]; each verapamil SR/trandolapril combination group, listed as HCTZ)","HR of developing diabetes ([2]; 25 mg, CAS group)","HR of developing diabetes ([2]; 25 mg, NCAS group)","HR of developing diabetes ([2]; addition of 12.5 mg, CAS group)","HR of developing diabetes ([2]; addition of 12.5 mg, NCAS group)",Effect of add-on medication on risk of diabetes [2],"HR of developing diabetes ([2]; 2-mg dose, CAS group)","HR of developing diabetes ([2]; 2-mg dose, NCAS group)","HR of developing diabetes ([2]; 4-mg dose, CAS group)","HR of developing diabetes ([2]; 4-mg dose, NCAS group)"
NS(=O)(=O)c1cc2c(cc1Cl)NCNS2(=O)=O [hydrochlorothiazide],1.1,7.1,4.2,6.5,2.3,3.2,"clinically significant, incremental BP reduction",1.28,1.36,1.11,1.17,non-statistically significant increased risk of diabetes,,,,
CCOC(=O)[C@H](CCc1ccccc1)N[C@@H](C)C(=O)N1[C@H](C(=O)O)C[C@H]2CCCC[C@@H]21 [trandolapril],,,,,,,,,,,,appeared to confer a protective effect in the CAS group,0.86,0.99,0.77,0.98
